# Reference: patent US10668040B2, “Treatment of urea cycle disorders in neonates and infants” (Horizon Therapeutics, LLC, priority 2017, dated 2020)
# Experiments:
# [1] = test system: UCD patients; experiment: HPN-100-009 (Example 2): rate of hyperammonemic crises (HACs); assay type: in vivo, human; conditions: Age 2 Months to <2 Years
# Excerpt: HPN-100-009 is an open-label study consisting of a transition period to HPN-100, followed by a safety extension period for at least 6 months and up to 24 months of treatment with HPN-100, depending on age at enrollment. It is designed to capture information important for evaluating safety, pharmacokinetics and efficacy in young children. Subjects eligible for this study included patients ranging from newborn to <2 years of age with either a diagnosed or clinically suspected UCD. Ten infant and toddler (28 days to 23 months) subjects were enrolled in this study.
# Subjects aged 2 months to <2 years received RAVICTI® Oral Liquid administered just prior to breastfeeding or intake of formula or food. The recommended dosing regimen is 3-6 times per day depending on feeding schedule and at the discretion of the Investigator. The starting dose of RAVICTI® was based on UCD status (newly diagnosed, or already stable on sodium phenylbutyrate [NaPBA] and/or sodium benzoate [NaBz]) and whether a hyperammonemic crisis is present. Subsequently, the dose was adjusted based on clinical and/or ammonia results, according to an algorithm provided in the protocol.
# Rate of Hyperammonemic Crises (HACs) During the First 6 Months on RAVICTI®.
# End point description. A HAC was defined having signs and symptoms consistent with hyperammonemia (such as but not limited to frequent vomiting, nausea, headache, lethargy, irritability, combativeness, somnolence) associated with high blood ammonia and requiring medical intervention. Rate of HACs prior to enrollment was calculated as sum of (number of HAC)/sum of (subject age in days at the time of enrollment or 365 days, whichever was less) across all subjects in the corresponding group. Rate of HACs per 6 months during the safety extension was calculated as sum of (number of HAC)/sum of (days during first 6 months starting on Day 8 or number days on RAVICTI®, whichever was less) across all subjects in the corresponding group. Safety population: all enrolled subjects who received any amount of study medication. […]
# [2] = HPN-100-009 (Example 2): plasma PBA, PAA, PAGN PK on first full day of RAVICTI dosing; assay type: in vivo, human; conditions: Age 2 Months to <2 Years, mean (SD)
# Excerpt: Plasma Phenylbutyrate/Phenylbutyric Acid (PB A) 1) Maximum Plasma Concentration (Cmax); 2) Minimum Plasma Concentration (Cmin); 3) Area Under the Curve from Time Zero to the Time of Last Quantifiable Concentration (AUC[0-Last]); and 4) Time to Cmax (Tmax) on the First Full Day of RAVICTI® Dosing.
# End point description. Pharmacokinetic (PK) Evaluable Population: all subjects from the safety population with individual concentration-time profiles that allow computation of meaningful PK parameter values. End point timeframe: Hour 0 and between 4 and 6 hours, 8 hours, and between 12 and 24 hours after the first dose of the day on Day 1 for stable subjects and on Day 2 for subjects in HAC.
# Plasma Phenylacetate/Phenylacetic Acid (PAA) 1) Maximum Plasma Concentration (Cmax); 2) Minimum Plasma Concentration (Cmin); 3) Area Under the Curve from Time Zero to the Time of Last Quantifiable Concentration (AUC[0-Last]); and 4) Time to Cmax (Tmax) on the First Full Day of RAVICTI® Dosing.
# End point description. PK Evaluable Population: all subjects from the safety population with individual concentration-time profiles that allow computation of meaningful PK parameter values. End point timeframe: Hour 0 and between 4 and 6 hours, 8 hours, and between 12 and 24 hours after the first dose of the day on Day 1 for stable subjects and on Day 2 for subjects in HAC.
# Plasma Phenylacetylglutamine (PAGN) 1) Maximum Plasma Concentration (Cmax); 2) Minimum Plasma Concentration (Cmin); 3) Area Under the Curve from Time Zero to the Time of Last Quantifiable Concentration (AUC[0-Last]); and 4) Time to Cmax (Tmax) on the First Full Day of RAVICTI® Dosing.
# [3] = Example 3: urinary PAA concentrations (first full day and up to end of trial); assay type: in vivo, human
# Procedure: Urinary PAA Concentrations on the First Full Day of RAVICTI Dosing
# PK Evaluable Population: all subjects from the safety population with individual concentration-time profiles that allow computation of meaningful PK parameter values. Measurements were taken at hour 0, between 0.5 and 1.5 hours, between 1.5 and 2.5 hours, between 4 and 6 hours, between 7.5 and 8.5 hours, and between 12 and 24 hours after the first dose of the day on day 1 for stable subjects and on day 2 for subjects in HAC.
# Urinary PAA Concentrations Up to End of Trial
# PK Evaluable Population: all subjects from the safety population with individual concentration-time profiles that allow computation of meaningful PK parameter values. Measurements were taken at day 7, month 1, month 2, month 3, month 4, month 5, month 6, month 9, month 12, month 15, month 18, month 24, and at the end of the trial.
# [4] = test system: UCD patients; conditions: 4 patients aged 2 months to 2 years; cited from earlier work
smiles,measurement,setting,value
"O=C(CCCc1ccccc1)OCC(COC(=O)CCCc1ccccc1)OC(=O)CCCc1ccccc1 [RAVICTI, benzenebutanoic acid, 1′,1″-(1,2,3-propanetriyl) ester]",Rate of HACs During Safety Extension,"[1]; Day 8 up to Month 6, n = 9",0.006
same,Rate of HACs During Transition (Days 1-7),[1]; n = 10,0
same,Rate of HACs Prior to Enrollment,"[1]; up to 365 days prior to enrollment, n = 10",0.11
same,Plasma PAA AUC[0-last],[2],246.126 (±238.547) (μg * hr/mL)
same,Plasma PAA Cmax,[2],36.52 (±31.784) (μg/mL)
same,Plasma PAA Cmin,[2],4.197 (±6.434) (μg/mL)
same,Plasma PAA Tmax,[2],7.422 (±7.351) (hrs)
same,Plasma PAGN AUC[0-last],[2],583.835 (±285.241) (μg * hr/mL)
same,Plasma PAGN Cmax,[2],62.45 (±27.281) (μg/mL)
same,Plasma PAGN Cmin,[2],20.62 (±14.529) (μg/mL)
same,Plasma PAGN Tmax,[2],6.573 (±7.181) (hrs)
same,Plasma PBA AUC[0-last],[2],280.936 (±293.553) (μg * hr/mL)
same,Plasma PBA Cmax,[2],42.44 (±36.715) (μg/mL)
same,Plasma PBA Cmin,[2],1.697 (±2.254) (μg/mL)
same,Plasma PBA Tmax,[2],8.383 (±4.564) (hrs)
same,Urinary PAA concentration,"[3]; Age 0 to <2 months, Day 7",23.7 (±31.2); μg/mL
same,Urinary PAA concentration,"[3]; Age 0 to <2 months, End of trial",11.6 (±9.0); μg/mL
same,Urinary PAA concentration,"[3]; Age 0 to <2 months, Month 1",14.6 (±17.2); μg/mL
same,Urinary PAA concentration,"[3]; Age 0 to <2 months, Month 2",12.3 (±13.3); μg/mL
same,Urinary PAA concentration,"[3]; Age 0 to <2 months, Month 3",14.4 (±10.7); μg/mL
same,Urinary PAA concentration,"[3]; Age 0 to <2 months, Month 4",6.4 (±7.1); μg/mL
same,Urinary PAA concentration,"[3]; Age 0 to <2 months, Month 5",13.2 (±14.0); μg/mL
same,Urinary PAA concentration,"[3]; Age 0 to <2 months, Month 6",5.5 (±00000); μg/mL
same,Urinary PAA concentration,"[3]; Age 0 to <2 months, Month 9",11.8 (±8.5); μg/mL
same,Urinary PAA concentration,"[3]; Age 0 to <2 months, Month 12",6.0 (±3.8); μg/mL
same,Urinary PAA concentration,"[3]; Age 0 to <2 months, Month 15",4.9 (±0.3); μg/mL
same,Urinary PAA concentration,"[3]; Age 0 to <2 months, first full day, 0.5 to 1.5 hours",46.2 (±58.6); μg/mL
same,Urinary PAA concentration,"[3]; Age 0 to <2 months, first full day, 1.5 to 2.5 hours","62.5 (±42.8), μg/mL"
same,Urinary PAA concentration,"[3]; Age 0 to <2 months, first full day, 4 to 6 hours",34.6 (±56.2); μg/mL
same,Urinary PAA concentration,"[3]; Age 0 to <2 months, first full day, 7.5 to 8.5 hours",22.8 (±25.3); μg/mL
same,Urinary PAA concentration,"[3]; Age 0 to <2 months, first full day, 12 to 24 hours",35.2 (±51.0); μg/mL
same,Urinary PAA concentration,"[3]; Age 0 to <2 months, first full day, Hour 0",11.1 (±10.4); μg/mL
same,Urinary PAA concentration,"[3]; Age 2 months to <2 years, Day 7",5.82 (±2.21); μg/mL
same,Urinary PAA concentration,"[3]; Age 2 months to <2 years, End of trial",7.0 (±5.16); μg/mL
same,Urinary PAA concentration,"[3]; Age 2 months to <2 years, Month 1",4.44 (±4.61); μg/mL
same,Urinary PAA concentration,"[3]; Age 2 months to <2 years, Month 2",3.69 (±1.82); μg/mL
same,Urinary PAA concentration,"[3]; Age 2 months to <2 years, Month 3",4.65 (±0.49); μg/mL
same,Urinary PAA concentration,"[3]; Age 2 months to <2 years, Month 4",7.14 (±00000); μg/mL
same,Urinary PAA concentration,"[3]; Age 2 months to <2 years, Month 5",3.27 (±1.96); μg/mL
same,Urinary PAA concentration,"[3]; Age 2 months to <2 years, Month 6",1.59 (±00000); μg/mL
same,Urinary PAA concentration,"[3]; Age 2 months to <2 years, Month 9",4.10 (±1.65); μg/mL
same,Urinary PAA concentration,"[3]; Age 2 months to <2 years, Month 15",2.04 (±00000); μg/mL
same,Urinary PAA concentration,"[3]; Age 2 months to <2 years, Month 18",1.64 (±00000); μg/mL
same,Urinary PAA concentration,"[3]; Age 2 months to <2 years, first full day, 0.5 to 1.5 hours",6.50 (±3.39); μg/mL
same,Urinary PAA concentration,"[3]; Age 2 months to <2 years, first full day, 1.5 to 2.5 hours",7.29 (±4.10); μg/mL
same,Urinary PAA concentration,"[3]; Age 2 months to <2 years, first full day, 4 to 6 hours",2.60 (±2.18); μg/mL
same,Urinary PAA concentration,"[3]; Age 2 months to <2 years, first full day, 7.5 to 8.5 hours",4.48 (±4.38); μg/mL
same,Urinary PAA concentration,"[3]; Age 2 months to <2 years, first full day, 12 to 24 hours",4.31 (±2.33); μg/mL
same,Urinary PAA concentration,"[3]; Age 2 months to <2 years, first full day, Hour 0",18.78 (±27.33); μg/mL
same,"PAA exposure, 24-hour area under the curve, vs NaPBA",[4],very similar
same,"mean ammonia exposure, 24-hour area under the curve, vs NaPBA",[4],non-inferior
